Data as given in article PMC5898707, “Piperazinyl fragment improves anticancer activity of Triapine” (PLoS ONE, 2018).
Where two headings read alike, the source gives them in different places.

Key:
[1] = cited from earlier work
NHDF = assay: Cytotoxicity MTS assay, 72 h; format: cell-based; settings: Homo sapiens, NHDF normal fibroblasts
From the text: (§1) The human colon carcinoma cell line HCT116 wild type (p53^+/+), human breast carcinoma cell line MCF-7 and glioblastoma cell line Hs683 were obtained from ATCC. The glioma cell line U-251 was purchased from Sigma Aldrich and the normal human fibroblast cell lines NHDF from PromoCell. The human colon cancer cell line HCT116 with a p53 deletion (p53^-/-) was kindly provided by Prof. M. Rusin from the Maria Sklodowska-Curie Memorial Cancer Centre and Institute of Oncology in Gliwice, Poland. Cells were grown as monolayer cultures in Dulbecco’s modified Eagle’s medium with an antibiotic gentamicin (200 μL/100 mL medium) in 75 cm^2 flasks (Nunc). DMEM for HCT116, MCF-7, U-251, Hs683 were supplemented with 12% heat-inactivated fetal bovine serum (Sigma) and for NHDF with 15% non-inactivated fetal bovine serum (Sigma). All the cell lines were cultured under standard conditions at 37°C in a humidified atmosphere at 5% CO2.
(§2) The cells were seeded in 96-well plates (Nunc) at a density of 5,000 cells/well (HCT116, MCF-7, U-251, Hs683) and 4,000 cells/well (NHDF) and incubated at 37°C for 24 h. The assay was performed following a 72 h incubation with varying concentrations of the compounds that were tested. Then, 20 μL of The CellTiter 96®AQueous One Solution-MTS (Promega) solution was added to each well (with 100 μL DMEM without phenol red) and incubated for 1 h at 37°C. The optical densities of the samples were analyzed at 490 nm using a multi-plate reader (Synergy 4, Bio Tek). Results were expressed as a percentage of the control and calculated as the inhibitory concentration (IC50) values using GraphPad Prism 5. The IC50 parameter was defined as the compound concentration that was necessary to reduce the proliferation of cells to 50% of the untreated control. Each individual compound was tested in triplicate in a single experiment with each experiment being repeated four to five times.

U-251 = assay: Cytotoxicity MTS assay, 72 h; format: cell-based, human; settings: for IC50: Homo sapiens, U-251, 72 h, MTS
From the text: as §1, §2

HCT116 p53^-/- = assay: Cytotoxicity MTS assay, 72 h; format: cell-based, human; settings: for IC50: Homo sapiens, HCT-116, HCT116 p53^-/-, 72 h, MTS
From the text: as §1, §2

Hs683 = assay: Cytotoxicity MTS assay, 72 h; format: cell-based, human; settings: for IC50: Homo sapiens, Hs 683, Hs683, 72 h, MTS
From the text: as §1, §2

MCF-7 = assay: Cytotoxicity MTS assay, 72 h; format: cell-based, human; settings: for IC50: Homo sapiens, MCF7, MCF-7, 72 h, MTS
From the text: as §1, §2

HCT116 p53^+/+ = assay: Cytotoxicity MTS assay, 72 h; format: cell-based, human; settings: for IC50: Homo sapiens, HCT-116, HCT116 p53^+/+, 72 h, MTS
From the text: as §1, §2

[2] = Protonation constants by pH-dependent UV-visible spectrophotometric titration; format: physicochemical; settings: MeOH/H2O 80/20 by weight, I = 0.1 M KCl, T = 25.0°C
Method: Spectrophotometric titrations were performed in order to probe the acid-based equilibria that were associated with each ligand and to determine the pH range over which the chelator was in its charge neutral form. This property is important in understanding the passage of a molecule through the cell membranes, as charged chelators have poor access. These studies were performed in an 80% (w/w) MeOH/H2O solvent mixture due to the low solubility of these compounds in pure water. The fully protonated forms of the ligands have four L^1-L^7 or five L^8-L^12 dissociable protons, respectively. […] An additional proton in L^8-L^12 derives from the additional pyridine, pyrimidine or pyrazine ring, respectively; however, not all of them could be determined under these experimental conditions. The protonation constants that were obtained are given in Table 1 and the species distribution diagram of the protonated species of the selected ligand is presented in Fig 3.
To determine the acid-base properties of the studied ligands, UV-visible spectrophotometric experiments as a function of p[H] were carried out in the pH range 2–11.
UV-Visible titrations were also carried out. The absorption spectra (200–800 nm) were recorded using a Jasco V630 spectrophotometer. The initial pH of 3.2 mL ligand samples was adjusted to be acidic or basic and the titration of the solution was then carried out by adding known volumes of NaOH or HCl, respectively. The spectrophotometric data were fitted using the HypSpec program. Distribution diagrams of the species were calculated using Hyperquad Simulation and Speciation (HySS) software.

HCT116 p53^+/+ cells = assay: Western blot of cell cycle and cell death proteins; format: cell-based, human; settings: 24 h, L^9 at four-fold IC50
Method: (§3) The HCT116 (p53^+/+), U-251 and MCF-7 cells were seeded in 3 cm Petri dishes (Nunc) at a density of 0.5·10^6 cells/well and incubated overnight. […] Cells were harvested by trypsinization, washed with cold PBS and cell pellets were obtained by centrifugation at 2,000 rpm. Total cell lysates were obtained by dissolving the cell pellets in 150 μL of a RIPA buffer (Thermo Scientific) containing a Halt Protease Inhibitor Cocktail (Thermo Scientific) or Halt Phosphatase Inhibitor Cocktail (Thermo Scientific) along with 0.5 M EDTA and lysed for 20 min on ice on a rocking plate. The lysates were then sonicated, centrifuged at 10,000 rpm for 10 min at 4°C and the supernatants were collected for further analysis. The protein concentration was determined using a Micro BCA™ Protein Assay Kit (Thermo Scientific) according to the manufacturer’s instructions. Equal amounts of proteins (15 μg) were electrophoresed on SDS-Page gels and transferred onto a nitrocellulose membranes. The membranes were blocked in 5% non-fat milk prepared in PBS containing 0.1% Tween-20 (TPBS) for 1 h. After blocking, the membranes were incubated with specific primary antibodies: PARP, p53, p21^Waf1/Cip1, cdc2, cyclin E, cytochrome c, caspase-3,8,9 and GAPPH overnight at 4°C, then washed and incubated with horseradish peroxidase (HRP)-conjugated secondary antibodies for 1 h at room temperature. All the antibodies were purchased from Cell Signaling and were diluted 1:1000 in 5% milk in TPBS. Finally, the membranes were washed and incubated with a SuperSignal™ West Pico Chemiluminescent Substrate (Thermo Scientific). The chemiluminescence signals were captured using a ChemiDoc™ XRS+ System (BioRad). The experiments were performed at least three times.

U-251 cells = assay: Western blot of cell cycle and cell death proteins; format: cell-based, human; settings: 24 h
Method: as §3

MCF-7 cells = assay: Western blot of cell cycle and cell death proteins; format: cell-based, human; settings: 24 h, L^9 at four-fold IC50
Method: as §3

c1ccncc1 [pyridine]
logK ([1]; tabulated value): 5.23

COc1ccc(N2CCN(C(=S)NN=Cc3ncccc3N)CC2)cc1 [L^4, N’-[(3-aminopyridin-2-yl)methylidene]-4-(4-methoxyphenyl)piperazine-1-carbothiohydrazide]
IC50 (NHDF): > 25000 nM
IC50 (U-251): 649 ± 170 nM
IC50 (HCT116 p53^-/-): 185 ± 88 nM
IC50 (Hs683): 4460 ± 954 nM
IC50 (MCF-7): 424 ± 149 nM
IC50 (HCT116 p53^+/+): 1330 ± 209 nM
melting point: 195 to 196 °C

Nc1cccnc1C=NNC(=S)N1CCN(c2ccc(C(F)(F)F)cc2[N+](=O)[O-])CC1 [L^6, N’-[(3-aminopyridin-2-yl)methylidene]-4-[2-nitro-4-(trifluoromethyl)phenyl]piperazine-1-carbothiohydrazide]
IC50 (NHDF): > 25000 nM
IC50 (U-251): 381 ± 42 nM
IC50 (HCT116 p53^-/-): 270 ± 7 nM
IC50 (Hs683): 1890 ± 812 nM
IC50 (MCF-7): 470 ± 97 nM
IC50 (HCT116 p53^+/+): 139 ± 16 nM
melting point: 179 to 180 °C

Nc1cccnc1C=NNC(=S)N1CCN(c2ccccc2)CC1 [L^1, N’-[(3-aminopyridin-2-yl)methylidene]-4-phenylpiperazine-1-carbothiohydrazide]
IC50 (NHDF): > 25000 nM
IC50 (U-251): 403 ± 90 nM
IC50 (HCT116 p53^-/-): 128 ± 12 nM
IC50 (Hs683): 1440 ± 358 nM
IC50 (MCF-7): 532 ± 145 nM
IC50 (HCT116 p53^+/+): 1520 ± 445 nM
melting point: 189 to 190 °C

Nc1cccnc1C=NNC(=S)N1CCN(c2ccc(C(F)(F)F)cn2)CC1 [L^9, N’-[(3-aminopyridin-2-yl)methylidene]-4-[5-(trifluoromethyl)pyridin-2-yl]piperazine-1-carbothiohydrazide]
IC50 (NHDF): > 25000 nM
IC50 (U-251): 277 ± 58 nM
IC50 (HCT116 p53^-/-): 123 ± 61 nM
IC50 (Hs683): 844 ± 238 nM
IC50 (MCF-7): 204 ± 24 nM
IC50 (HCT116 p53^+/+): 422 ± 113 nM

Nc1cccnc1C=NNC(=S)N1CCN(c2ccc(F)cc2)CC1 [L^2, N’-[(3-aminopyridin-2-yl)methylidene]-4-(4-fluorophenyl)piperazine-1-carbothiohydrazide]
IC50 (NHDF): > 25000 nM
IC50 (U-251): 887 ± 158 nM
IC50 (HCT116 p53^-/-): 152 ± 74 nM
IC50 (Hs683): 2490 ± 512 nM
IC50 (MCF-7): 360 ± 111 nM
IC50 (HCT116 p53^+/+): 526 ± 77 nM
melting point: 210 to 211 °C

Nc1cccnc1C=NNC(=S)N1CCN(c2ccccn2)CC1 [L^8, N’-[(3-aminopyridin-2-yl)methylidene]-4-(pyridin-2-yl)piperazine-1-carbothiohydrazide]
IC50 (NHDF): > 25000 nM
IC50 (U-251): 1070 ± 280 nM
IC50 (HCT116 p53^-/-): 139 ± 20 nM
IC50 (Hs683): 1160 ± 307 nM
IC50 (MCF-7): 1120 ± 113 nM
IC50 (HCT116 p53^+/+): 1900 ± 292 nM
melting point: 210 to 211 °C

Nc1cccnc1C=NNC(=S)N1CCN(c2ncc(C(F)(F)F)cc2Cl)CC1 [L^10, N’-[(3-aminopyridin-2-yl)methylidene]-4-[3-chloro-5-(trifluoromethyl)pyridin-2-yl]piperazine-1-carbothiohydrazide]
IC50 (NHDF): > 25000 nM
IC50 (U-251): 137 ± 16 nM
IC50 (HCT116 p53^-/-): 159 ± 11 nM
IC50 (Hs683): 195 ± 21 nM
IC50 (MCF-7): 258 ± 40 nM
IC50 (HCT116 p53^+/+): 170 ± 15 nM
melting point: 199 to 200 °C

Nc1cccnc1C=NNC(=S)N1CCN(c2cnccn2)CC1 [L^12, N’-[(3-aminopyridin-2-yl)methylidene]-4-(pyrazin-2-yl)piperazine-1-carbothiohydrazide]
IC50 (NHDF): > 25000 nM
IC50 (U-251): 743 ± 109 nM
IC50 (HCT116 p53^-/-): 342 ± 42 nM
IC50 (Hs683): 2600 ± 237 nM
IC50 (MCF-7): 2220 ± 638 nM
IC50 (HCT116 p53^+/+): 435 ± 108 nM
melting point: 217 to 218 °C

CC(C)(C)OC(=O)N1CCN(C(=S)NN=Cc2ncccc2N)CC1 [L^7, tert-butyl 4-({2-[(3-aminopyridin-2-yl)methylidene]hydrazinyl}carbonothioyl)piperazine-1-carboxylate]
IC50 (NHDF): > 25000 nM
IC50 (U-251): 3080 ± 1270 nM
IC50 (HCT116 p53^-/-): 1130 ± 49 nM
IC50 (Hs683): 4620 ± 1030 nM
IC50 (MCF-7): 2540 ± 400 nM
IC50 (HCT116 p53^+/+): 762 ± 238 nM
melting point: 193 to 194 °C

N#Cc1ccc(N2CCN(C(=S)NN=Cc3ncccc3N)CC2)cc1 [L^5, N’-[(3-aminopyridin-2-yl)methylidene]-4-(4-cyanophenyl)piperazine-1-carbothiohydrazide]
IC50 (NHDF): > 25000 nM
IC50 (U-251): 2570 ± 675 nM
IC50 (HCT116 p53^-/-): 746 ± 354 nM
IC50 (Hs683): 10000 ± 2640 nM
IC50 (MCF-7): 3810 ± 1020 nM
IC50 (HCT116 p53^+/+): 1450 ± 452 nM
melting point: 209 to 210 °C

NC(=S)NN=Cc1ncccc1N [Triapine, 3-aminopyridine-2-carboxaldehyde thiosemicarbazone]
IC50 (NHDF): > 25000 nM
logK1 [2]: 10.64
logK2 [2]: 3.48
logβ1H ([2]; error 1σ): 10.64 (1)
logβ2H ([2]; error 1σ): 14.12 (1)
cytochrome c (HCT116 p53^+/+ cells): release of cytochrome c
expression of cyclin E (HCT116 p53^+/+ cells): overexpression
cytochrome c (U-251 cells; U-251): release of cytochrome c
expression of cyclin E (U-251 cells; U-251, L^9 at four-fold IC50): overexpression
PARP cleavage (U-251 cells; glioma cell (U-251)): PARP cleavage
cytochrome c (MCF-7 cells): release of cytochrome c
expression of cdc2 (MCF-7 cells): much stronger
expression of cyclin E (MCF-7 cells): overexpression
logK1 ([1]; literature value): 10.86
logK2 ([1]; literature value): 3.79
logβ1H ([1]; literature value): 10.86 (1)^[[45]^]
logβ2H ([1]; literature value): 14.65 (1)^[[45]^]
Therapeutic index (TI) NHDF vs. U-251 (U-251): >17
IC50 (U-251): 1480 ± 558 nM
Therapeutic index (TI) NHDF vs. HCT116 p53^-/- (HCT116 p53^-/-): >19
IC50 (HCT116 p53^-/-): 1340 ± 338 nM
Therapeutic index (TI) NHDF vs. Hs683 (Hs683): >14
IC50 (Hs683): 1760 ± 292 nM
Therapeutic index (TI) NHDF vs. MCF-7 (MCF-7): >11
IC50 (MCF-7): 2330 ± 431 nM
Therapeutic index (TI) NHDF vs. HCT116 p53^+/+ (HCT116 p53^+/+): >22
IC50 (HCT116 p53^+/+): 1120 ± 277 nM

Nc1cccnc1C=NNC(=S)N1CCN(c2ncccn2)CC1 [L^11, N’-[(3-aminopyridin-2-yl)methylidene]-4-(pyrimidin-2-yl)piperazine-1-carbothiohydrazide]
IC50 (NHDF): > 25000 nM
IC50 (U-251): 1270 ± 374 nM
IC50 (HCT116 p53^-/-): 650 ± 55 nM
IC50 (Hs683): 2840 ± 581 nM
IC50 (MCF-7): 1730 ± 388 nM
IC50 (HCT116 p53^+/+): 668 ± 45 nM
melting point: 198 to 199 °C
